# In ChEMBL document CHEMBL5365466, “Discovery of Triazolyl Derivatives of Cucurbitacin B Targeting IGF2BP1 against Non-Small Cell Lung Cancer” (J Med Chem, 2023):
# Tests used:
# [1] = Antiproliferative activity against human L02 cells assessed as cell growth inhibition at 1 uM incubated for 72 hrs by SRB assay; assay type: toxicity, cell-based
# [2] = test system: HCT-116; experiment: Antiproliferative activity against human HCT-116 cells assessed as cell growth inhibition at 0.1 uM incubated for 72 hrs by SRB assay; assay type: functional
# [3] = test system: HCT-116; experiment: Antiproliferative activity against human HCT-116 cells assessed as cell growth inhibition at 1 uM incubated for 72 hrs by SRB assay; assay type: functional
# [4] = Selectivity index, ratio of IC50 for antiproliferative activity against human L02 cells to IC50 for antiproliferative activity against human HCT-116 cells; assay type: toxicity, cell-based; settings: L02 cells versus HCT-116 cells, read-out: Ratio IC50
# [5] = Antiproliferative activity against human L02 cells assessed as cell growth inhibition at 0.1 uM incubated for 72 hrs by SRB assay; assay type: toxicity, cell-based
# [6] = test system: HCT-116; experiment: Antiproliferative activity against human HCT-116 cells assessed as cell growth inhibition incubated for 72 hrs by SRB assay; assay type: functional, cell-based; settings: HCT-116, 72 h
# [7] = Antiproliferative activity against human L02 cells assessed as cell growth inhibition incubated for 72 hrs by SRB assay; assay type: toxicity, cell-based
# [8] = test system: A549; experiment: Antiproliferative activity against human A549 cells assessed as cell growth inhibition; assay type: functional, cell-based
# [9] = test system: HepG2; experiment: Antiproliferative activity against human HepG2 cells assessed as cell growth inhibition incubated for 72 hrs by MTT assay; assay type: functional, cell-based; settings: HepG2, 72 h
# [10] = Antiproliferative activity against human L02 cells assessed as cell growth inhibition incubated for 72 hrs by MTT assay; assay type: toxicity, cell-based
# [11] = Selectivity index, ratio of IC50 for antiproliferative activity against human L02 cells to IC50 for antiproliferative activity against human A549 cells; assay type: toxicity, cell-based; settings: L02 cells versus A549 cells, read-out: Ratio IC50
# [12] = Selectivity index, ratio of IC50 for antiproliferative activity against human L02 cells to IC50 for antiproliferative activity against human MDA-MB-231 cells; assay type: toxicity, cell-based; settings: L02 cells versus MDA-MB-231 cells, read-out: Ratio IC50
# [13] = test system: SK-OV-3; experiment: Antiproliferative activity against human SK-OV-3 cells assessed as cell growth inhibition incubated for 72 hrs by SRB assay; assay type: functional, cell-based; settings: SK-OV-3, 72 h
# [14] = Selectivity index, ratio of IC50 for antiproliferative activity against human L02 cells to IC50 for antiproliferative activity against human CFPAC-1 cells
# [15] = test system: A549; experiment: Induction of cell cycle arrest in human A549 cells assessed as accumulation of cells at G1 phase at 0.5 uM incubated for 24 hrs by PI staining based flow cytometric analysis (reference value: 65.6 %); assay type: functional
# [16] = Selectivity index, ratio of IC50 for antiproliferative activity against human L02 cells to IC50 for antiproliferative activity against human BXPC-3 cells; assay type: toxicity, cell-based; settings: L02 cells versus BXPC-3 cells, read-out: Ratio IC50
# [17] = test system: A549; experiment: Induction of apoptosis in human A549 cells at 0.5 uM incubated for 48 hrs by Annexin V-FITC/PI staining based flow cytometric analysis; assay type: functional
# [18] = Selectivity index, ratio of IC50 for antiproliferative activity against human L02 cells to IC50 for antiproliferative activity against human PANC-1 cells
# [19] = test system: MCF7; experiment: Antiproliferative activity against human MCF7 cells assessed as cell growth inhibition incubated for 72 hrs by SRB assay; assay type: functional, cell-based; settings: MCF7, 72 h
# [20] = test system: A549; experiment: Induction of cell cycle arrest in human A549 cells assessed as accumulation of cells at G2 phase at 0.5 uM incubated for 24 hrs by PI staining based flow cytometric analysis (reference value: 9.26 %); assay type: functional
# [21] = Selectivity index, ratio of IC50 for antiproliferative activity against human L02 cells to IC50 for antiproliferative activity against human HeLa cells; assay type: toxicity, cell-based; settings: L02 cells versus HeLa cells, read-out: Ratio IC50
# [22] = test system: A549; experiment: Antiproliferative activity against human A549 cells assessed as cell growth inhibition incubated for 72 hrs by SRB assay; assay type: functional, cell-based; settings: A549, 72 h
# [23] = Selectivity index, ratio of IC50 for antiproliferative activity against human L02 cells to IC50 for antiproliferative activity against human SK-OV-3 cells
# [24] = target: Insulin-like growth factor 2 mRNA-binding protein 1 (Homo sapiens, UniProt Q9NZI8); experiment: Binding affinity to His-tagged recombinant IGF2BP1 (unknown origin) assessed as dissociation constant by surface plasmon resonance assay
# [25] = Acute toxicity in C57BL/6J mouse assessed as death at 0.75 mg/kg,ip measured after 14 days; assay type: organism-based; settings: in vivo, 336 h, time 14 day
# [26] = test system: HeLa; experiment: Antiproliferative activity against human HeLa cells assessed as cell growth inhibition incubated for 72 hrs by SRB assay; assay type: functional, cell-based
# [27] = test system: A549; experiment: Antitumor activity against human A549 cells xenografted in BALB/c mouse assessed as tumor growth inhibition at 0.5 mg/kg,ip administrated for 21 days; assay type: functional; settings: A549, 504 h, time 21 day, read-out: TGI
# [28] = test system: HepG2; experiment: Antiproliferative activity against human HepG2 cells assessed as cell growth inhibition incubated for 72 hrs by SRB assay; assay type: functional, cell-based; settings: HepG2, 72 h
# [29] = test system: BXPC-3; experiment: Antiproliferative activity against human BXPC-3 cells assessed as cell growth inhibition incubated for 72 hrs by SRB assay; assay type: functional, cell-based; settings: BXPC-3, 72 h
# [30] = test system: A549; experiment: Induction of cell cycle arrest in human A549 cells assessed as accumulation of cells at S phase at 0.5 uM incubated for 24 hrs by PI staining based flow cytometric analysis (reference value: 23 %); assay type: functional
# [31] = Selectivity index, ratio of IC50 for antiproliferative activity against human L02 cells to IC50 for antiproliferative activity against human HepG2 cells; assay type: toxicity, cell-based; settings: L02 cells versus HepG2 cells, read-out: Ratio IC50
# [32] = test system: CFPAC-1; experiment: Antiproliferative activity against human CFPAC-1 cells assessed as cell growth inhibition incubated for 72 hrs by SRB assay; assay type: functional, cell-based; settings: CFPAC-1, 72 h
# [33] = Selectivity index, ratio of IC50 for antiproliferative activity against human L02 cells to IC50 for antiproliferative activity against human MCF7 cells; assay type: toxicity, cell-based; settings: L02 cells versus MCF7 cells, read-out: Ratio IC50
# [34] = test system: PANC-1; experiment: Antiproliferative activity against human PANC-1 cells assessed as cell growth inhibition incubated for 72 hrs by SRB assay; assay type: functional, cell-based; settings: PANC-1, 72 h
# [35] = test system: MDA-MB-231; experiment: Antiproliferative activity against human MDA-MB-231 cells assessed as cell growth inhibition incubated for 72 hrs by SRB assay; assay type: functional, cell-based; settings: MDA-MB-231, 72 h
# Sequence of Insulin-like growth factor 2 mRNA-binding protein 1 (Q9NZI8 whole entry): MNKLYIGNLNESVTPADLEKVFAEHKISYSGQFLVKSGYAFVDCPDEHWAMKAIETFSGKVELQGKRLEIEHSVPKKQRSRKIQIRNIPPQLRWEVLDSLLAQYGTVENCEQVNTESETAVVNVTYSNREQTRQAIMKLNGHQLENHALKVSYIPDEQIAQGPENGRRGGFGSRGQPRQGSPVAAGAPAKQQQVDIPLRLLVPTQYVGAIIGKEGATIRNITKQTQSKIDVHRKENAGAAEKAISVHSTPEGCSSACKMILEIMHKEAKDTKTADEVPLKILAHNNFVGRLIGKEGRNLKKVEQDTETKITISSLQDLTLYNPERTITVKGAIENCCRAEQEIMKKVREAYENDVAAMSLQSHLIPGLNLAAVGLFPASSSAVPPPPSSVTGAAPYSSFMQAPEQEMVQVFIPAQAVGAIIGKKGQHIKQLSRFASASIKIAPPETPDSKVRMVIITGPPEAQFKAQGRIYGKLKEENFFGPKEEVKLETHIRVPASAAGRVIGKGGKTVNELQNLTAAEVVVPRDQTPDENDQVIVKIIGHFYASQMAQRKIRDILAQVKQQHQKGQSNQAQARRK
structure (smiles),measurement,setting,value
CC(=O)OC(C)(C)/C=C/C(=O)[C@](C)(O)[C@H]1[C@H](O)C[C@@]2(C)[C@@H]3CC=C4[C@@H](C[C@H](OC(=O)Cn5ncn(-c6ccccc6)c5=O)C(=O)C4(C)C)[C@]3(C)C(=O)C[C@]12C,"inhibition at 72 h, 1 µM",[1],71.6%
same,inhibition at 0.1 µM,[2],67.9%
same,inhibition at 1 µM,[3],82.2%
same,selectivity ratio,[4],1.57
same,"inhibition at 72 h, 0.1 µM",[5],59.6%
same,IC50,[6],51 nM
same,IC50 at 72 h,[7],80 nM
CC(=O)OC(C)(C)/C=C/C(=O)[C@](C)(O)[C@H]1[C@H](O)C[C@@]2(C)[C@@H]3CC=C4[C@@H](C[C@H](OC(=O)Cn5ncn(-c6ccc(Cl)cc6)c5=O)C(=O)C4(C)C)[C@]3(C)C(=O)C[C@]12C,"inhibition at 72 h, 1 µM",[1],70.9%
same,inhibition at 0.1 µM,[2],69%
same,inhibition at 1 µM,[3],84.4%
same,selectivity ratio,[4],0.49
same,"inhibition at 72 h, 0.1 µM",[5],61.3%
same,IC50,[6],63 nM
same,IC50 at 72 h,[7],31 nM
CC(=O)OC(C)(C)/C=C/C(=O)[C@](C)(O)[C@H]1[C@H](O)C[C@@]2(C)[C@@H]3CC=C4[C@@H](C[C@H](N)C(=O)C4(C)C)[C@]3(C)C(=O)C[C@]12C,IC50,[8],120 nM
CC(=O)OC(C)(C)/C=C/C(=O)[C@](C)(O)[C@H]1[C@H](OCCCC(=O)OCCCOc2no[n+]([O-])c2S(=O)(=O)c2ccccc2)C[C@@]2(C)[C@@H]3CC=C4[C@@H](C[C@H](O)C(=O)C4(C)C)[C@]3(C)C(=O)C[C@]12C,IC50,[9],630 nM
same,IC50 at 72 h,[10],2970 nM
CC(=O)OC(C)(C)/C=C/C(=O)[C@](C)(O)[C@H]1[C@H](O)C[C@@]2(C)[C@@H]3CC=C4[C@@H](C[C@H](OC(=O)Cn5ncn(-c6ccc(Br)cc6)c5=O)C(=O)C4(C)C)[C@]3(C)C(=O)C[C@]12C,"inhibition at 72 h, 1 µM",[1],67.5%
same,inhibition at 0.1 µM,[2],70.8%
same,inhibition at 1 µM,[3],84.2%
same,selectivity ratio,[4],0.41
same,"inhibition at 72 h, 0.1 µM",[5],54.1%
same,IC50,[6],76 nM
same,IC50 at 72 h,[7],31 nM
CC(=O)OC(C)(C)/C=C/C(=O)[C@](C)(O)[C@H]1[C@H](O)C[C@@]2(C)[C@@H]3CC=C4[C@@H](C[C@H](O)C(=O)C4(C)C)[C@]3(C)C(=O)C[C@]12C,selectivity ratio,[11],0.13
same,"inhibition at 72 h, 1 µM",[1],70.7%
same,selectivity ratio,[12],0.3
same,IC50,[13],47 nM
same,Ratio IC50,[14],0.49
same,Activity,[15],51.1%
same,selectivity ratio,[16],0.5
same,inhibition at 0.1 µM,[2],69%
same,Activity,[17],29.1%
same,Ratio IC50,[18],0.16
same,IC50,[19],40 nM
same,Activity,[20],37.2%
same,inhibition at 1 µM,[3],82.7%
same,selectivity ratio,[21],0.46
same,selectivity ratio,[4],0.57
same,IC50,[22],88 nM
same,Ratio IC50,[23],0.23
same,Kd,[24],66.2 nM
same,Activity,[25],Non-Toxic
same,IC50,[26],24 nM
same,"inhibition at 72 h, 0.1 µM",[5],70.6%
same,IC50,[6],19 nM
same,IC50 at 72 h,[7],11 nM
same,inhibition in vivo at 0.5 mg/kg,[27],53%
same,IC50,[28],51 nM
same,IC50,[29],22 nM
same,Activity,[30],10.2%
same,selectivity ratio,[31],0.22
same,IC50,[32],23 nM
same,selectivity ratio,[33],0.23
same,IC50,[34],67 nM
same,IC50,[35],37 nM
CC1(C)C(=O)[C@@H](O)C[C@@H]2C1=CC[C@@H]1[C@@]2(C)C(=O)C[C@]2(C)[C@@H]([C@@](C)(O)C(=O)/C=C/C(C)(C)c3cccc(C#N)c3)[C@H](O)C[C@@]12C,IC50,[8],6.8 nM
COc1cc(-n2cnn(CC(=O)O[C@H]3C[C@@H]4C(=CC[C@@H]5[C@@]4(C)C(=O)C[C@]4(C)[C@@H]([C@@](C)(O)C(=O)/C=C/C(C)(C)OC(C)=O)[C@H](O)C[C@@]54C)C(C)(C)C3=O)c2=O)cc(OC)c1OC,"inhibition at 72 h, 1 µM",[1],70%
same,inhibition at 0.1 µM,[2],78%
same,inhibition at 1 µM,[3],84.2%
same,selectivity ratio,[4],0.81
same,"inhibition at 72 h, 0.1 µM",[5],66%
same,IC50,[6],37 nM
same,IC50 at 72 h,[7],30 nM
CC(=O)OC(C)(C)/C=C/C(=O)[C@](C)(O)[C@H]1[C@H](O)C[C@@]2(C)[C@@H]3CC=C4[C@@H](C[C@H](OC(=O)Cn5ncn(-c6ccc(C)cc6)c5=O)C(=O)C4(C)C)[C@]3(C)C(=O)C[C@]12C,"inhibition at 72 h, 1 µM",[1],68.2%
same,inhibition at 0.1 µM,[2],72.5%
same,inhibition at 1 µM,[3],82.1%
same,selectivity ratio,[4],0.33
same,"inhibition at 72 h, 0.1 µM",[5],36.5%
same,IC50,[6],121 nM
same,IC50 at 72 h,[7],40 nM
CC(=O)OC(C)(C)/C=C/C(=O)[C@](C)(O)[C@H]1[C@H](O)C[C@@]2(C)[C@@H]3CC=C4[C@@H](C[C@H](OC(=O)c5cn(-c6ccc(F)cc6)nn5)C(=O)C4(C)C)[C@]3(C)C(=O)C[C@]12C,"inhibition at 72 h, 1 µM",[1],71.9%
same,inhibition at 0.1 µM,[2],65.3%
same,inhibition at 1 µM,[3],87.4%
same,selectivity ratio,[4],2.58
same,"inhibition at 72 h, 0.1 µM",[5],36.4%
same,IC50,[6],31 nM
same,IC50 at 72 h,[7],80 nM
CC(=O)OC(C)(C)/C=C/C(=O)[C@](C)(O)[C@H]1[C@H](O)C[C@@]2(C)[C@@H]3CC=C4[C@@H](C[C@H](OC(=O)c5ccccn5)C(=O)C4(C)C)[C@]3(C)C(=O)C[C@]12C,"inhibition at 72 h, 1 µM",[1],71.2%
same,inhibition at 0.1 µM,[2],67.9%
same,inhibition at 1 µM,[3],83.1%
same,selectivity ratio,[4],0.43
same,"inhibition at 72 h, 0.1 µM",[5],44.8%
same,IC50,[6],79 nM
same,IC50 at 72 h,[7],34 nM
COc1ccc(-n2cnn(CC(=O)O[C@H]3C[C@@H]4C(=CC[C@@H]5[C@@]4(C)C(=O)C[C@]4(C)[C@@H]([C@@](C)(O)C(=O)/C=C/C(C)(C)OC(C)=O)[C@H](O)C[C@@]54C)C(C)(C)C3=O)c2=O)cc1,"inhibition at 72 h, 1 µM",[1],70.8%
same,inhibition at 0.1 µM,[2],64.3%
same,inhibition at 1 µM,[3],83.3%
same,selectivity ratio,[4],0.75
same,"inhibition at 72 h, 0.1 µM",[5],31.4%
same,IC50,[6],44 nM
same,IC50 at 72 h,[7],33 nM
